Laboratory results from patent US5840684A, “Glycopeptide antibiotic derivatives” (Eli Lilly and Company, priority 1995, dated 1998).
≈ marks a conversion by molar mass, not a printed value.

Legend:
[1] = system: Entercoccus faecium 180-1; assay: broth micro-dilution MIC; type: cell-based
Procedure: (§1) The MIC's were determined using a standard broth micro-dilution assay.

[2] = system: Staphylococcus aureus 447; assay: broth micro-dilution MIC; type: cell-based
Procedure: as §1

[3] = system: Staphylococcus aureus 489; assay: broth micro-dilution MIC; type: cell-based
Procedure: as §1

[4] = system: Staphylococcus aureus 491; assay: broth micro-dilution MIC; type: cell-based
Procedure: as §1

[5] = system: Staphylococcus aureus SA1199A; assay: broth micro-dilution MIC; type: cell-based
Procedure: as §1

Entercoccus faecium 180 = assay: broth micro-dilution MIC; type: cell-based; conditions: Entercoccus faecium 180
Procedure: (§2) The formula I compounds have in vitro and in vivo activity against Gram-positive pathogenic bacteria. The MIC's were determined using a standard broth micro-dilution assay.

Entercoccus faecium 2041 = assay: broth micro-dilution MIC; type: cell-based; conditions: Entercoccus faecium 2041
Procedure: as §2

[6] = system: Enterococcus gallinarum 245; assay: broth micro-dilution MIC; type: cell-based; conditions: Enterococcus gallinarum 245
Procedure: as §2

[7] = system: vancomycin-resistant enterococci; assay: broth micro-dilution, mean geometric MIC; type: cell-based, Enterococcus faecium and Enterococcus faecalis; conditions: enterococci, 24-hour incubation
[8] = system: vancomycin-susceptible enterococci; assay: broth micro-dilution, mean geometric MIC; type: cell-based, Enterococcus faecium and Enterococcus faecalis; conditions: enterococci, 24-hour incubation
[9] = system: Staphylococcus aureus SA1199B; type: cell-based
Procedure: as §1

Entercoccus faecium 276 = assay: broth micro-dilution MIC; type: cell-based
Procedure: as §1

[10] = system: Staphylococcus aureus 446; assay: broth micro-dilution MIC; type: cell-based
Procedure: as §1

[11] = system: Staphylococcus aureus X400; assay: broth micro-dilution MIC; type: cell-based
Procedure: as §1

[12] = system: Streptococcus pyogenes C203; assay: broth micro-dilution MIC; type: cell-based
Procedure: as §1

[13] = system: Staphylococcus epidermidis 270; assay: broth micro-dilution MIC; type: cell-based
Procedure: as §2

[14] = system: Staphylococcus haemolyticus 105; assay: broth micro-dilution MIC; type: cell-based
Procedure: as §2

[15] = system: Staphylococcus haemolyticus 415; assay: broth micro-dilution MIC; type: cell-based
Procedure: as §2

[16] = system: Streptococcus pneumoniae P1; assay: broth micro-dilution MIC; type: cell-based
Procedure: as §2

[17] = system: Staphylococcus aureus S13E; type: cell-based
Procedure: as §1

[18] = system: Staphylococcus aureus X778; assay: broth micro-dilution MIC; type: cell-based
Procedure: as §1

Row | SMILES | MIC [1] | MIC [2] | MIC [3] | MIC [4] | MIC [5] | MIC (Entercoccus faecium 180) | MIC (Entercoccus faecium 2041) | MIC [6] | mean geometric MIC, Vancomycin Resistant Strains [7] | mean geometric MIC, Vancomycin Sensitive Strains [8] | MIC [9] | MIC (Entercoccus faecium 276) | MIC [10] | MIC [11] | MIC [12] | MIC [13] | MIC [14] | MIC [15] | MIC [16] | MIC [17] | also measured
1 | CCCCCC1CCC(c2ccc(CNC3(C)CC(OC4C(Oc5c6cc7cc5Oc5ccc(cc5Cl)C(OC5CC(C)(N)C(O)C(C)O5)C5NC(=O)C(NC(=O)C7NC(=O)C(CC(N)=O)NC(=O)C(NC(=O)C(CC(C)C)NC)C(O)c7ccc(c(Cl)c7)O6)c6ccc(O)c(c6)-c6c(O)cc(O)cc6C(C(=O)O)NC5=O)OC(CO)C(O)C4O)OC(C)C3O)cc2)CC1 (centres unmarked) [Compound 34] | 2 µg/mL (≈ 1.09 µM) | 8 µg/mL (≈ 4.36 µM) | 8 µg/mL (≈ 4.36 µM) | 8 µg/mL (≈ 4.36 µM) | 2 µg/mL (≈ 1.09 µM) | 4 µg/mL (≈ 2.18 µM) | 8 µg/mL (≈ 4.36 µM) | 4 µg/mL (≈ 2.18 µM) | 4.0 µg/mL | 3.4 µg/mL |  |  |  |  |  |  |  |  |  |  | 
2 | CNC(CC(C)C)C(=O)NC1C(=O)NC(CC(N)=O)C(=O)NC2C(=O)NC3C(=O)NC(C(=O)NC(C(=O)O)c4cc(O)cc(O)c4-c4cc3ccc4O)C(OC3CC(C)(N)C(O)C(C)O3)c3ccc(c(Cl)c3)Oc3cc2cc(c3OC2OC(CO)C(O)C(O)C2OC2CC(C)(NCc3cncc(-c4ccccc4)c3)C(O)C(C)O2)Oc2ccc(cc2Cl)C1O (centres unmarked) [Compound 101] | ≤ 0.06 µg/mL | 1 µg/mL (≈ 0.568 µM) | ≤ 0.06 µg/mL | 0.5 µg/mL (≈ 0.284 µM) | 0.5 µg/mL (≈ 0.284 µM) |  | ≤ 0.06 µg/mL | 8 µg/mL (≈ 4.55 µM) | 4.0 µg/mL |  | 1 µg/mL (≈ 0.568 µM) | 0.125 µg/mL (≈ 0.071 µM) | 0.5 µg/mL (≈ 0.284 µM) | ≤ 0.06 µg/mL | ≤ 0.06 µg/mL | 0.5 µg/mL (≈ 0.284 µM) | 1 µg/mL (≈ 0.568 µM) | 8 µg/mL (≈ 4.55 µM) | ≤ 0.06 µg/mL |  | 
3 | CNC(CC(C)C)C(=O)NC1C(=O)NC(CC(N)=O)C(=O)NC2C(=O)NC3C(=O)NC(C(=O)NC(C(=O)O)c4cc(O)cc(O)c4-c4cc3ccc4O)C(OC3CC(C)(N)C(O)C(C)O3)c3ccc(c(Cl)c3)Oc3cc2cc(c3OC2OC(CO)C(O)C(O)C2OC2CC(C)(NCc3ccc(N4CCC(C)CC4)cc3)C(O)C(C)O2)Oc2ccc(cc2Cl)C1O (centres unmarked) [Compound 129] | ≤ 0.06 µg/mL | 1 µg/mL (≈ 0.562 µM) | ≤ 0.06 µg/mL | 0.5 µg/mL (≈ 0.281 µM) | ≤ 0.06 µg/mL | 4 µg/mL (≈ 2.25 µM) | ≤ 0.06 µg/mL | 0.125 µg/mL (≈ 0.0702 µM) | 27 µg/mL | 1.52 µg/mL |  | 0.125 µg/mL (≈ 0.0702 µM) | 2 µg/mL (≈ 1.12 µM) |  | ≤ 0.06 µg/mL | 1 µg/mL (≈ 0.562 µM) | 4 µg/mL (≈ 2.25 µM) | 4 µg/mL (≈ 2.25 µM) | ≤ 0.06 µg/mL |  | 
4 | CNC(CC(C)C)C(=O)NC1C(=O)NC(CC(N)=O)C(=O)NC2C(=O)NC3C(=O)NC(C(=O)NC(C(=O)O)c4cc(O)cc(O)c4-c4cc3ccc4O)C(OC3CC(C)(N)C(O)C(C)O3)c3ccc(c(Cl)c3)Oc3cc2cc(c3OC2OC(CO)C(O)C(O)C2OC2CC(C)(NCc3ccc(O)c(O)c3)C(O)C(C)O2)Oc2ccc(cc2Cl)C1O (centres unmarked) [Compound 145] | ≤ 0.06 µg/mL | 1 µg/mL (≈ 0.583 µM) | ≤ 0.06 µg/mL | 0.5 µg/mL (≈ 0.292 µM) | ≤ 0.06 µg/mL | 4 µg/mL (≈ 2.33 µM) |  |  |  | 1.3 µg/mL | ≤ 0.06 µg/mL | 0.125 µg/mL (≈ 0.0729 µM) | 0.5 µg/mL (≈ 0.292 µM) |  | ≤ 0.06 µg/mL | 1 µg/mL (≈ 0.583 µM) | 2 µg/mL (≈ 1.17 µM) | 8 µg/mL (≈ 4.67 µM) | ≤ 0.06 µg/mL | 0.125 µg/mL (≈ 0.0729 µM) | MIC [18]: 0.125 µg/mL (≈ 0.0729 µM)
5 | CNC(CC(C)C)C(=O)NC1C(=O)NC(CC(N)=O)C(=O)NC2C(=O)NC3C(=O)NC(C(=O)NC(C(=O)O)c4cc(O)cc(O)c4-c4cc3ccc4O)C(OC3CC(C)(N)C(O)C(C)O3)c3ccc(c(Cl)c3)Oc3cc2cc(c3OC2OC(CO)C(O)C(O)C2OC2CC(C)(NCc3cccc(OC(=O)C4CCCCC4)c3)C(O)C(C)O2)Oc2ccc(cc2Cl)C1O (centres unmarked) [Compound 165] | ≤ 0.06 µg/mL | 0.5 µg/mL (≈ 0.276 µM) | 2 µg/mL (≈ 1.11 µM) | 0.5 µg/mL (≈ 0.276 µM) | ≤ 0.06 µg/mL | 0.5 µg/mL (≈ 0.276 µM) | ≤ 0.06 µg/mL | 4 µg/mL (≈ 2.21 µM) | 4.0 µg/mL | 0.062 µg/mL | 1 µg/mL (≈ 0.553 µM) | 0.5 µg/mL (≈ 0.276 µM) | 1 µg/mL (≈ 0.553 µM) | 0.5 µg/mL (≈ 0.276 µM) | ≤ 0.06 µg/mL | 1 µg/mL (≈ 0.553 µM) | 4 µg/mL (≈ 2.21 µM) | 4 µg/mL (≈ 2.21 µM) | ≤ 0.06 µg/mL | ≤ 0.06 µg/mL | 
6 | CNC(CC(C)C)C(=O)NC1C(=O)NC(CC(N)=O)C(=O)NC2C(=O)NC3C(=O)NC(C(=O)NC(C(=O)O)c4cc(O)cc(O)c4-c4cc3ccc4O)C(O)c3ccc(c(Cl)c3)Oc3cc2cc(c3OC2OC(CO)C(O)C(O)C2OC2CC(C)(NCc3cccc4ccccc34)C(O)C(C)O2)Oc2ccc(cc2Cl)C1O (centres unmarked) [Compound 180] |  |  | ≤ 0.06 µg/mL | 0.5 µg/mL (≈ 0.315 µM) | ≤ 0.06 µg/mL | 8 µg/mL (≈ 5.03 µM) | 0.25 µg/mL (≈ 0.157 µM) | 0.25 µg/mL (≈ 0.157 µM) | > 128 µg/mL | 0.71 µg/mL | ≤ 0.06 µg/mL | 2 µg/mL (≈ 1.26 µM) |  | ≤ 0.06 µg/mL | ≤ 0.06 µg/mL |  | 2 µg/mL (≈ 1.26 µM) | 2 µg/mL (≈ 1.26 µM) | ≤ 0.06 µg/mL | ≤ 0.06 µg/mL | MIC [18]: ≤ 0.06 µg/mL
7 | CC#CCCCCCCCCCCOc1ccc(CNC2(C)CC(OC3C(Oc4c5cc6cc4Oc4ccc(cc4Cl)C(OC4CC(C)(N)C(O)C(C)O4)C4NC(=O)C(NC(=O)C6NC(=O)C(CC(N)=O)NC(=O)C(NC(=O)C(CC(C)C)NC)C(O)c6ccc(c(Cl)c6)O5)c5ccc(O)c(c5)-c5c(O)cc(O)cc5C(C(=O)O)NC4=O)OC(CO)C(O)C3O)OC(C)C2O)cc1 (centres unmarked) [Compound 233] | 2 µg/mL (≈ 1.07 µM) |  | 4 µg/mL (≈ 2.13 µM) | 8 µg/mL (≈ 4.26 µM) | 4 µg/mL (≈ 2.13 µM) | 2 µg/mL (≈ 1.07 µM) | 2 µg/mL (≈ 1.07 µM) |  | 1.7 µg/mL | 1.7 µg/mL |  | 8 µg/mL (≈ 4.26 µM) | 4 µg/mL (≈ 2.13 µM) | 8 µg/mL (≈ 4.26 µM) |  | 8 µg/mL (≈ 4.26 µM) |  |  | 0.5 µg/mL (≈ 0.266 µM) | 8 µg/mL (≈ 4.26 µM) | MIC [18]: 8 µg/mL (≈ 4.26 µM)
